Test results published in PubChem BioAssay AID342 (DTP/NCI, 2004).
“And” between values parts separate entries of the source, which are not always exact repeats. Equal entries are not always repeated.

Test system: Swiss mice, Sarcoma 180 sc, mean tumor weight T/C
Experiment: NCI In Vivo Anticancer Drug Screen. Data for tumor model Sarcoma 180 (subcutaneous) in Swiss mice
Settings: endpoint: mean tumor weight, higher = larger tumour
Procedure, shortened: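 Antitumor activity is assessed in mice with transplantable tumors. Treated (T) and vehicle control (C) groups are compared on survival or tumor size.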

[1] = dose: 31.0 mg/kg/injection, schedule: Q01DX007 (ip), vehicle: carboxymethylcellulose (CMC)
[2] = dose: 62.0 mg/kg/injection, schedule: Q01DX007 (ip), vehicle: carboxymethylcellulose (CMC)
[3] = dose: 12.5 mg/kg/injection, schedule: Q01DX007 (ip), vehicle: water
[4] = dose: 25.0 mg/kg/injection, schedule: Q01DX007 (ip), vehicle: water

Nc1nc2n[nH]nc2c(=O)[nH]1
T/C (dose: 12.5 mg/kg/injection, schedule: Q01DX007 (ip), vehicle: other): 118 % of control
T/C (dose: 12.5 mg/kg/injection, schedule: Q#A X014 (ip), vehicle: other): 101 % of control
T/C (dose: 15.75 mg/kg/injection, schedule: Q01DX007 (ip), vehicle: other): 78 % of control
T/C (dose: 25.0 mg/kg/injection, schedule: Q01DX007 (ip), vehicle: other): 85 % of control
T/C (dose: 25.0 mg/kg/injection, schedule: Q#A X014 (ip), vehicle: other): 68 % of control
T/C (dose: 31.5 mg/kg/injection, schedule: Q01DX007 (ip), vehicle: carboxymethylcellulose (CMC)): 109 % of control
T/C (dose: 31.5 mg/kg/injection, schedule: Q01DX007 (ip), vehicle: other): 69 % of control
T/C (dose: 31.5 mg/kg/injection, schedule: Q01DX007 (ip), vehicle: water): 43 % of control
T/C (dose: 50.0 mg/kg/injection, schedule: Q01DX007 (ip), vehicle: other): 70 % of control
T/C (dose: 50.0 mg/kg/injection, schedule: Q#A X014 (ip), vehicle: other): 38 % of control
T/C (dose: 50.4 mg/kg/injection, schedule: Q01DX007 (ip), vehicle: other): 84 % of control
T/C (dose: 63.0 mg/kg/injection, schedule: Q01DX007 (ip), vehicle: carboxymethylcellulose (CMC)): 58 % of control
T/C (dose: 63.0 mg/kg/injection, schedule: Q01DX007 (ip), vehicle: other): 54 % of control and 60 % of control
T/C (dose: 63.0 mg/kg/injection, schedule: Q01DX007 (ip), vehicle: water): 57 % of control
T/C (dose: 84.0 mg/kg/injection, schedule: Q01DX007 (ip), vehicle: other): 63 % of control
T/C (dose: 94.5 mg/kg/injection, schedule: Q01DX007 (ip), vehicle: carboxymethylcellulose (CMC)): 54 % of control
T/C (dose: 94.5 mg/kg/injection, schedule: Q01DX007 (ip), vehicle: water): 15 % of control
T/C (dose: 100.0 mg/kg/injection, schedule: Q01DX007 (ip), vehicle: other): 95 % of control and 116 % of control
T/C (dose: 100.0 mg/kg/injection, schedule: Q#A X014 (ip), vehicle: other): 64 % of control
T/C (dose: 126.0 mg/kg/injection, schedule: Q01DX007 (ip), vehicle: carboxymethylcellulose (CMC)): 39 % of control
T/C (dose: 126.0 mg/kg/injection, schedule: Q01DX007 (ip), vehicle: other): 33 % of control
T/C (dose: 126.0 mg/kg/injection, schedule: Q01DX007 (ip), vehicle: water): 18 % of control
T/C (dose: 200.0 mg/kg/injection, schedule: Q01DX007 (ip), vehicle: other): 70 % of control
T/C (dose: 400.0 mg/kg/injection, schedule: Q01DX007 (ip), vehicle: other): 52 % of control

CC(C)C(=O)OCC1OC(n2cnc3c(=S)nc(N)[nH]c32)C(OC(=O)C(C)C)C1OC(=O)C(C)C (centres undefined)
T/C (dose: 6.0 mg/kg/injection, schedule: Q01DX007 (ip), vehicle: carboxymethylcellulose (CMC)): 72 % of control
T/C (dose: 9.0 mg/kg/injection, schedule: Q01DX007 (ip), vehicle: carboxymethylcellulose (CMC)): 42 % of control
T/C (dose: 14.0 mg/kg/injection, schedule: Q01DX007 (ip), vehicle: methylcellulose (MC)): 42 % of control
T/C (dose: 21.0 mg/kg/injection, schedule: Q01DX007 (ip), vehicle: carboxymethylcellulose (CMC)): 5 % of control and 21 % of control
T/C (dose: 21.0 mg/kg/injection, schedule: Q01DX007 (ip), vehicle: methylcellulose (MC)): 29 % of control
T/C [1]: 7 % of control
T/C (dose: 31.0 mg/kg/injection, schedule: Q01DX007 (ip), vehicle: methylcellulose (MC)): 22 % of control

CCCCCCCCCCCCCCCC[N+]1(C)CCN(SN2CC[N+](C)(CCCCCCCCCCCCCCCC)CC2)CC1
T/C (dose: 21.0 mg/kg/injection, schedule: Q#A X014 (ip), vehicle: saline): 55 % of control and 77 % of control
T/C (dose: 31.5 mg/kg/injection, schedule: Q#A X014 (ip), vehicle: saline): 53 % of control and 76 % of control
T/C (dose: 47.5 mg/kg/injection, schedule: Q#A X014 (ip), vehicle: saline): 65 % of control
T/C (dose: 71.5 mg/kg/injection, schedule: Q#A X014 (ip), vehicle: saline): 37 % of control

COc1cc(C[C@H]2c3cc(OC)c(OC)cc3CCN2C)c(Oc2cc3c(cc2OC)-c2c(OC)c(OC)cc4c2[C@H](C3)N(C)CC4)cc1OC
T/C (dose: 7.8 mg/kg/injection, schedule: Q01DX007 (ip), vehicle: saline): 96 % of control
T/C (dose: 15.6 mg/kg/injection, schedule: Q01DX007 (ip), vehicle: saline): 77 % of control
T/C (dose: 31.3 mg/kg/injection, schedule: Q01DX007 (ip), vehicle: saline): 78 % of control
T/C (dose: 62.5 mg/kg/injection, schedule: Q01DX007 (ip), vehicle: saline): 57 % of control and 68 % of control
T/C (dose: 125.0 mg/kg/injection, schedule: Q01DX007 (ip), vehicle: saline): 63 % of control

CC(=O)N(C)C
T/C [2]: 100 % of control
T/C (dose: 125.0 mg/kg/injection, schedule: Q01DX007 (ip), vehicle: carboxymethylcellulose (CMC)): 95 % of control
T/C (dose: 500.0 mg/kg/injection, schedule: Q01DX007 (ip), vehicle: carboxymethylcellulose (CMC)): 65 % of control
T/C (dose: 750.0 mg/kg/injection, schedule: Q01DX007 (ip), vehicle: saline): 104 % of control
T/C (dose: 1000.0 mg/kg/injection, schedule: Q01DX007 (ip), vehicle: saline): 70 % of control

C1CN1c1nc(N2CC2)nc(N2CC2)n1
T/C (dose: 85.0 micrograms/kg/injection, schedule: Q01DX007 (ip), vehicle: carboxymethylcellulose (CMC)): 111 % of control
T/C (dose: 170.0 micrograms/kg/injection, schedule: Q01DX007 (ip), vehicle: carboxymethylcellulose (CMC)): 95 % of control
T/C (dose: 340.0 micrograms/kg/injection, schedule: Q01DX007 (ip), vehicle: carboxymethylcellulose (CMC)): 119 % of control
T/C (dose: 680.0 micrograms/kg/injection, schedule: Q01DX007 (ip), vehicle: carboxymethylcellulose (CMC)): 124 % of control

Cc1cc(N=Nc2ccc(Sc3ccc(N=Nc4ccc(O)c(C(=O)O)c4)cc3)cc2)c(N)c(N=Nc2ccc(C(=O)O)cc2)c1N
T/C (dose: 6.25 mg/kg/injection, schedule: Q01DX007 (ip), vehicle: water): 114 % of control
T/C [3]: 106 % of control
T/C [4]: 83 % of control

CCCN(C)/N=N/c1nc[nH]c1C(N)=O
T/C [1]: 55 % of control
T/C (dose: 46.0 mg/kg/injection, schedule: Q01DX007 (ip), vehicle: carboxymethylcellulose (CMC)): 37 % of control
T/C [2]: 34 % of control

Nc1ncnc2c1ncn2C1OC(COCc2ccccc2)C(OCc2ccccc2)C1OCc1ccccc1 (centres undefined)
T/C (dose: 10.0 mg/kg/injection, schedule: Q01DX007 (ip), vehicle: saline): 88 % of control
T/C (dose: 20.0 mg/kg/injection, schedule: Q01DX007 (ip), vehicle: saline): 86 % of control and 107 % of control
T/C (dose: 40.0 mg/kg/injection, schedule: Q01DX007 (ip), vehicle: saline): 64 % of control and 87 % of control
T/C (dose: 160.0 mg/kg/injection, schedule: Q01DX007 (ip), vehicle: saline): 99 % of control

CN(C)c1ccc(/C=C\c2ccnc3ccccc23)cc1
T/C [3]: 123 % of control
T/C (dose: 16.0 mg/kg/injection, schedule: Q01DX007 (ip), vehicle: methylcellulose (MC)): 118 % of control
T/C (dose: 24.0 mg/kg/injection, schedule: Q01DX007 (ip), vehicle: methylcellulose (MC)): 80 % of control
T/C [4]: 114 % of control
T/C (dose: 36.0 mg/kg/injection, schedule: Q01DX007 (ip), vehicle: methylcellulose (MC)): 66 % of control
T/C (dose: 50.0 mg/kg/injection, schedule: Q01DX007 (ip), vehicle: water): 80 % of control

CCC(=O)O[C@H]1CC[C@H]2[C@@H]3CC[C@H]4CC(=O)[C@H](C)C[C@]4(C)[C@H]3CC[C@]12C
T/C (dose: 125.0 mg/kg/injection, schedule: Q01DX007 (sc), vehicle: steriod suspending solution): 77 % of control
T/C (dose: 250.0 mg/kg/injection, schedule: Q01DX007 (sc), vehicle: steriod suspending solution): 101 % of control
T/C (dose: 500.0 mg/kg/injection, schedule: Q01DX007 (sc), vehicle: steriod suspending solution): 121 % of control
T/C (dose: 1000.0 mg/kg/injection, schedule: Q01DX007 (sc), vehicle: steriod suspending solution): 62 % of control

[N-]=[N+]=CC(=O)CCC(N)C(=O)O (centres undefined)
T/C (dose: 12.5 mg/kg/injection, schedule: Q#A X014 (ip), vehicle: saline): 45 % of control and 59 % of control
T/C (dose: 25.0 mg/kg/injection, schedule: Q#A X014 (ip), vehicle: saline): 6 % of control and 17 % of control
T/C (dose: 25.0 micrograms/kg/injection, schedule: Q01DX007 (ip), vehicle: carboxymethylcellulose (CMC)): 70 % of control
T/C (dose: 50.0 micrograms/kg/injection, schedule: Q01DX007 (ip), vehicle: carboxymethylcellulose (CMC)): 51 % of control
T/C (dose: 100.0 micrograms/kg/injection, schedule: Q01DX007 (ip), vehicle: carboxymethylcellulose (CMC)): 8 % of control
